{
  "source": "paper PMC12106395",
  "about": "“HmuY proteins of the Porphyromonas genus show diversity in heme-binding properties” (Frontiers in Cellular and Infection Microbiology, 2025)",
  "key": {"HusA^Pg": {"molecular_target": "T1, HusA^Pg (Porphyromonas gingivalis, UniProt Q7MSY3)", "T1 construct": "gene PG_2227; 8xHis-MBP tag cut off with Factor Xa; E. coli host; strain of the plasmid only in supplement (W83 is the BLAST query strain)", "T1 sequence (Q7MSY3 entry or part of it)": "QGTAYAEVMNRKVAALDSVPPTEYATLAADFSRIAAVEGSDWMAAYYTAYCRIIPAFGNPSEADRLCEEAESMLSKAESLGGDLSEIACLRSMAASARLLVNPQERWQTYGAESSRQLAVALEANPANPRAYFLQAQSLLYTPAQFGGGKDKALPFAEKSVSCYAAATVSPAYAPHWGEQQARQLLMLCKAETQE", "test": "UV-visible difference absorbance spectroscopy", "format": "binding", "conditions": "5 uM protein, 5 uM PPIX, PBS pH 7.4, room temperature; complex seen by spectroscopy only"}, "HmuY^Bf-2": {"molecular_target": "T2, HmuY^Bf-2 (Bacteroides fragilis, UniProt Q5LGH3)", "T2 construct": "gene BF9343_0985; 8xHis-MBP tag cut off with Factor Xa; E. coli host", "T2 sequence (Q5LGH3 entry or part of it)": "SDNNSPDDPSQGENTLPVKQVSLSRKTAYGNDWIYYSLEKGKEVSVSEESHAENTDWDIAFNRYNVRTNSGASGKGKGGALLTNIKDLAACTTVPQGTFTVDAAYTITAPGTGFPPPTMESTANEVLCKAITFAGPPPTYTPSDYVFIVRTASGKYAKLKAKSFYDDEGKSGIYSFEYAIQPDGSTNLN", "test": "UV-visible difference absorbance spectroscopy; semi-denaturing PAGE with fluorescence detection", "format": "binding", "conditions": "5 uM protein, 5 uM PPIX, PBS pH 7.4, room temperature"}},
  "data": [
    {"molecule": "C=CC1=C(C)c2cc3[nH]c(cc4nc(cc5[nH]c(cc1n2)c(C)c5CCC(=O)O)C(CCC(=O)O)=C4C)c(C)c3C=C", "note": "[PPIX]", "values": [
      {"measurement": "UV-visible difference absorbance spectroscopy", "setting": "HusA^Pg", "value": "HmuY^Bf-2, which, similar to HusA^Pg, binds both heme and PPIX"},
      {"measurement": "UV-visible difference absorbance spectroscopy; semi-denaturing PAGE with fluores", "setting": "HmuY^Bf-2", "value": "PPIX binding by HmuY^Bf-2 were detected after electrophoretic separation of proteins and porphyrins"}
    ]}
  ]
}
